From US20210068395A1, “METHODS OF APPLYING ONE OR MORE CERTAIN HETEROARYL-1,2,4-TRIAZOLE AND HETEROARYL-TETRAZOLE COMPOUNDS TO CONTROL DAMAGE ON PLANTS, PROPAGATION MATERIAL THEREOF, AND PLANT DERIVED PRODUCTS” (SYNGENTA CROP PROTECTION AG, priority 2018, published 2021)

Key:
Assay type in all cases: in vivo
[1] = system: Diabrotica balteata (corn root worm); test: Diabrotica balteata (corn root worm), sprayed maize sprouts; details: 96 h, application rate 200 ppm, L2 larvae, 4 days after infestation, read-out: control in at least one of the two categories (mortality or growth inhibition)
Experimental: Maize sprouts placed onto an agar layer in 24-well microtiter plates were treated with aqueous test solutions prepared from 10,000 ppm DMSO stock solutions by spraying. After drying, the plates were infested with L2 larvae (6 to 8 per well). The samples were assessed for mortality and growth inhibition in comparison to untreated samples 4 days after infestation.

[2] = system: Euschistus heros (Neotropical Brown Stink Bug); test: Euschistus heros feeding/contact activity; details: 120 h, application rate 200 ppm, N2 nymphs on soybean leaves, 5 days after infestation, read-out: control in at least one of the two categories (mortality or growth inhibition)
Experimental: Soybean leaves on agar in 24-well microtiter plates were sprayed with aqueous test solutions prepared from 10,000 ppm DMSO stock solutions. After drying the leaves were infested with N2 nymphs. The samples were assessed for mortality and growth inhibition 5 days after infestation.

[3] = system: Frankliniella occidentalis (Western Flower Thrips); test: Frankliniella occidentalis feeding/contact activity; details: foliar, 168 h, application rate 200 ppm, mixed ages on sunflower leaf discs, 7 days after infestation
Experimental: (§1) Sunflower leaf discs were placed on agar in 24-well microtiter plates and sprayed with aqueous test solutions prepared from 10,000 DMSO stock solutions. After drying the leaf discs were infested with a Frankliniella population of mixed ages. The samples were assessed for mortality 7 days after infestation.

[4] = system: Myzus persicae (Green Peach Aphid); test: Myzus persicae feeding/contact activity; details: foliar, 144 h, application rate 200 ppm, sunflower leaf discs sprayed, 6 days after infestation
Experimental: Sunflower leaf discs were placed onto agar in a 24-well microtiter plate and sprayed with aqueous test solutions prepared from 10,000 ppm DMSO stock solutions. After drying, the leaf discs were infested with an aphid population of mixed ages. The samples were assessed for mortality 6 days after infestation.

[5] = system: Myzus persicae (Green Peach Aphid); test: Myzus persicae systemic activity; details: 144 h, test rate 24 ppm, roots of pea seedlings in test solution, 6 days
Experimental: Roots of pea seedlings infested with an aphid population of mixed ages were placed directly into aqueous test solutions prepared from 10,000 DMSO stock solutions. The samples were assessed for mortality 6 days after placing seedlings into test solutions.

[6] = system: Myzus persicae (Green Peach Aphid); test: Myzus persicae feeding activity (sucrose solution, Parafilm); details: 120 h, test rate 12.5 ppm, in sucrose solution, 5 days after infestation
Experimental: Test compounds prepared from 10,000 ppm DMSO stock solutions were applied by pipette into 24-well microtiter plates and mixed with sucrose solution. The plates were closed with a stretched Parafilm. A plastic stencil with 24 holes was placed onto the plate and infested pea seedlings were placed directly on the Parafilm. The infested plate was closed with a gel blotting paper and another plastic stencil and then turned upside down. The samples were assessed for mortality 5 days after infestation.

[7] = system: Plutella xylostella (Diamond Back Moth); test: Plutella xylostella feeding/contact activity, 96-well artificial diet; details: 216 h, application rate 500 ppm, 9 days after infestation
Experimental: 1, 2, 3, 4, 17, 19, 23, 26, 39, 41, 42, 54, 55, 56 Plutella xylostella (Diamond Back Moth):Feeding/Contact Activity 96-well microtiter plates containing artificial diet were treated with aqueous test solutions, prepared from 10,000 ppm DMSO stock solutions, by a liquid handling robot. After drying, eggs (˜30 per well) were infested onto a netted lid which was suspended above the diet. The eggs hatch and L1 larvae move down to the diet. The samples were assessed for mortality 9 days after infestation.

[8] = system: Spodoptera littoralis (Egyptian Cotton Leaf Worm); test: Spodoptera littoralis feeding/contact activity; details: foliar, 72 h, application rate 200 ppm, L1 larvae on cotton leaf discs, 3 days after infestation, read-out: control in at least one of the three categories (mortality or growth inhibition or anti-feeding)
Experimental: Cotton leaf discs were placed onto agar in 24-well microtiter plates and sprayed with aqueous test solutions prepared from 10,000 ppm DMSO stock solutions. After drying the leaf discs were infested with five L1 larvae. The samples were assessed for mortality, anti-feeding and growth inhibition 3 days after infestation.

[9] = system: Thrips tabaci (Onion thrips); test: Thrips tabaci feeding/contact activity; details: foliar, 144 h, application rate 200 ppm, sunflower leaf discs, 6 days after infestation, read-out: control in at least one of the two categories (mortality or anti-feeding)
Experimental: as §1, with “10,000 ppm” for “10,000”, “thrips” for “Frankliniella”, “mortality, and anti-feeding 6” for “mortality 7”

[10] = system: Aphis craccivora (Black Bean Aphid); test: Aphis craccivora mixed population, contact/feeding; details: 120 h, test rate 200 ppm, pea seedlings sprayed, 5 days after treatment
Experimental: Pea seedlings infested with mixed aged aphid population were treated with diluted test solutions in a spray chamber. 5 days after treatment, samples were assessed for mortality.

[11] = system: Aphis craccivora (Black Bean Aphid); test: Aphis craccivora mixed population, systemic/feeding; details: 120 h, test rate 12.5 ppm, pea seedlings in test solutions, 5 days
Experimental: Pea seedlings infested with mixed aged aphid population, were put into glass vials with test solutions. 5 days later, samples were assessed for mortality.

[12] = system: Carpocapsa (Cydia) Pomonella (Codling Moth); test: Carpocapsa (Cydia) pomonella larvicide, feeding/contact; details: 336 h, test rate 50 ppm, L1 larvae on diet cubes, 14 days after infestation, read-out: control in at least one of the two categories (mortality or growth inhibition)
Experimental: Diet cubes coated with paraffin were sprayed with diluted test solutions in an application chamber. After drying off the treated cubes (10 replicates) were infested with 1 L1 larvae. Samples were incubated at 26-27° C. and checked 14 days after infestation for mortality and growth inhibition.

[13] = system: Chrysodeixis includens (Soybean Looper); test: Chrysodeixis includens larvicide, feeding/contact; details: 120 h, test rate 50 ppm, L2 larvae on soybean leaves, 5 days after infestation, read-out: control in at least one of the two categories (mortality or growth inhibition)
Experimental: Soybean plants were treated in a spray chamber, cut off and placed into petri dishes containing wet filter paper. 1 d after application leaves were infested with 5 L2 larvae and covered with a fabric filter and plastic lids. 5 days after infestation the samples were assessed for mortality and growth inhibition.

[14] = system: Nilaparvata lugens (Brown Plant Hopper); test: Nilaparvata lugens larvicide, feeding/contact; details: 168 h, test rate 200 ppm, N3 nymphs on sprayed rice plants, 7 days after treatment, read-out: control in at least one of the two categories (mortality or growth inhibition)
Experimental: Rice plants were treated with the diluted test solutions in a spray chamber. After drying plants were infested with ˜20 N3 nymphs. 7 days after the treatment samples were assessed for mortality and growth inhibition.

[15] = system: Nilaparvata lugens (Brown Plant Hopper); test: Nilaparvata lugens larvicide, systemic into water; details: 168 h, test rate 12.5 ppm, into nutritive solution of rice plants, N3 nymphs, 7 days after infestation, read-out: control in at least one of the two categories (mortality or growth inhibition)
Experimental: Rice plants cultivated in a nutritive solution were treated with the diluted test solutions into nourishing cultivation system. 1 day after application plants were infested with ˜20 N3 nymphs. 7 days after infestation samples were assessed for mortality and growth inhibition.

[16] = system: Chilo suppressalis (Striped Stem Borer); test: Chilo suppressalis larvicide, feeding/contact; details: 120 h, test rate 200 ppm, L2 larvae on sprayed rice plants, 5 days after application
Experimental: Rice plants were treated in a spray chamber, cut off and placed into petri dishes containing wet filter paper. 10 L2 larvae were infested and covered up with a cotton filter and a lid. 5 days after application samples were assessed for mortality.

[17] = system: Aedes aegypti (Yellow Fever Mosquito); test: whole plant or invertebrate; details: test rate 200 ppm, adult females, mortality assessed at 24 and 48 hours
Experimental: (§2) Test solutions, at an application rate of 200 ppm in ethanol, were applied to 12 well tissue culture plates. Once the deposits were dry, five, two to five day old adult female Aedes aegypti were added to each well, and sustained with a 10% sucrose solution in a cotton wool plug. Assessment of knockdown was made one hour after introduction, and mortality was assessed at 24 and 48 hours after introduction.

[18] = system: Anopheles stephensi (Indian Malaria Mosquito); test: Anopheles stephensi adult contact on treated plates; details: test rate 200 ppm, adult females, mortality assessed at 24 and 48 hours
Experimental: as §2, with “Anopheles stephensi” for “Aedes aegypti”

[19] = system: Plutella xylostella (Diamond Back Moth); test: Plutella xylostella feeding/contact activity, 24-well artificial diet; details: 192 h, application rate 200 ppm, 24-well artificial diet, 8 days after infestation, read-out: control in at least one of the two categories (mortality or growth inhibition)
Experimental: 24-well microtiter plates with artificial diet were treated with aqueous test solutions prepared from 10,000 ppm DMSO stock solutions by pipetting. After drying, Plutella eggs were pipetted through a plastic stencil onto a gel blotting paper and the plate was closed with it. The samples were assessed for mortality and growth inhibition in comparison to untreated samples 8 days after infestation.

[20] = system: Spodoptera littoralis (Egyptian Cotton Leaf Worm); test: Spodoptera littoralis systemic activity (lettuce); details: 144 h, test rate 12.5 ppm, root uptake in lettuce, 6 days after infestation, read-out: control in at least one of the three categories (mortality or growth inhibition or anti-feeding)
From the text: Test compounds were applied by pipette prepared from 10,000 ppm DMSO stock solutions into 24-well plates and mixed with agar. Lettuce seeds were placed onto the agar and the multi well plate was closed by another plate which contained also agar. After 7 days the compound was absorbed by the roots and the lettuce grew into the lid plate. The lettuce leaves were then cut off into the lid plate. Spodoptera eggs were pipetted through a plastic stencil onto a humid gel blotting paper and the lid plate was closed with it. The samples were assessed for mortality, anti-feeding and growth inhibition 6 days after infestation.

C#CCN(C(=O)c1cc(C(F)(F)F)cc(C(F)(F)F)c1)C(C)c1ncnn1-c1ncccn1 (stereo not shown) [Compound 2]
percent control (mortality or growth inhibition) at 200 ppm [1]: ≥ 80%
percent control (mortality or growth inhibition) at 200 ppm [2]: ≥ 80%
mortality at 200 ppm [3]: ≥ 80%
mortality at 200 ppm [4]: ≥ 80%
mortality at 24 ppm [5]: ≥ 80%
mortality at 12.5 ppm [6]: ≥ 80%
mortality at 500 ppm [7]: ≥ 80%
percent control (mortality, anti-feedant effect or growth inhibition) at 200 ppm [8]: ≥ 80%
percent control (mortality, anti-feedant effect or growth inhibition) at 200 ppm [9]: ≥ 80%
mortality at 200 ppm [10]: ≥ 80%
mortality at 12.5 ppm [11]: ≥ 80%
percent control (mortality or growth inhibition) at 50 ppm [12]: ≥ 80%
percent control (mortality or growth inhibition) at 50 ppm [13]: ≥ 80%
percent control (mortality or growth inhibition) at 200 ppm [14]: ≥ 80%
percent control (mortality or growth inhibition) at 12.5 ppm [15]: ≥ 80%
mortality at 200 ppm [16]: ≥ 80%
mortality at 200 ppm [17]: ≥ 60%
mortality at 200 ppm [18]: ≥ 60%

CC(c1ncnn1-c1ncccn1)N(CC1CC1)C(=O)c1cc(Cl)cc(OC(F)(F)F)c1 (stereo not shown) [Compound 26]
percent control (mortality or growth inhibition) at 200 ppm [1]: ≥ 80%
mortality at 200 ppm [4]: ≥ 80%
mortality at 12.5 ppm [6]: ≥ 80%
mortality at 500 ppm [7]: ≥ 80%
percent control (mortality or growth inhibition) at 200 ppm [19]: ≥ 80%
percent control (mortality, anti-feedant effect or growth inhibition) at 200 ppm [8]: ≥ 80%
percent control (mortality, anti-feedant effect or growth inhibition) at 12.5 ppm [20]: ≥ 80%
percent control (mortality or growth inhibition) at 50 ppm [12]: ≥ 80%
percent control (mortality or growth inhibition) at 50 ppm [13]: ≥ 80%
percent control (mortality or growth inhibition) at 200 ppm [14]: ≥ 80%
percent control (mortality or growth inhibition) at 12.5 ppm [15]: ≥ 80%
mortality at 200 ppm [16]: ≥ 80%

CC(c1ncnn1-c1ccccn1)N(CC1CC1)C(=O)c1cc(C(F)(F)F)cc(C(F)(F)F)c1 (stereo not shown) [Compound 74]
percent control (mortality or growth inhibition) at 200 ppm [1]: ≥ 80%
mortality at 500 ppm [7]: ≥ 80%
percent control (mortality or growth inhibition) at 200 ppm [19]: ≥ 80%
percent control (mortality, anti-feedant effect or growth inhibition) at 200 ppm [8]: ≥ 80%
percent control (mortality, anti-feedant effect or growth inhibition) at 12.5 ppm [20]: ≥ 80%
percent control (mortality or growth inhibition) at 50 ppm [12]: ≥ 80%
percent control (mortality or growth inhibition) at 50 ppm [13]: ≥ 80%
percent control (mortality or growth inhibition) at 12.5 ppm [15]: ≥ 80%
mortality at 200 ppm [16]: ≥ 80%

C[C@H](NC(=O)c1cc(C(F)(F)F)cc(C(F)(F)F)c1)c1ncnn1-c1ncccn1 [Compound 17]
percent control (mortality or growth inhibition) at 200 ppm [1]: ≥ 80%
percent control (mortality or growth inhibition) at 200 ppm [2]: ≥ 80%
mortality at 200 ppm [4]: ≥ 80%
mortality at 24 ppm [5]: ≥ 80%
mortality at 12.5 ppm [6]: ≥ 80%
mortality at 500 ppm [7]: ≥ 80%
percent control (mortality or growth inhibition) at 200 ppm [19]: ≥ 80%
percent control (mortality, anti-feedant effect or growth inhibition) at 200 ppm [8]: ≥ 80%
percent control (mortality, anti-feedant effect or growth inhibition) at 12.5 ppm [20]: ≥ 80%
percent control (mortality, anti-feedant effect or growth inhibition) at 200 ppm [9]: ≥ 80%
percent control (mortality or growth inhibition) at 50 ppm [12]: ≥ 80%
percent control (mortality or growth inhibition) at 50 ppm [13]: ≥ 80%
mortality at 200 ppm [16]: ≥ 80%

CCN(C(=O)c1cc(C(F)(F)F)cc(C(F)(F)F)c1)C(C)c1ncnn1-c1ncccn1 (stereo not shown) [Compound 39]
percent control (mortality or growth inhibition) at 200 ppm [1]: ≥ 80%
percent control (mortality or growth inhibition) at 200 ppm [2]: ≥ 80%
mortality at 200 ppm [4]: ≥ 80%
mortality at 24 ppm [5]: ≥ 80%
mortality at 12.5 ppm [6]: ≥ 80%
mortality at 500 ppm [7]: ≥ 80%
percent control (mortality or growth inhibition) at 200 ppm [19]: ≥ 80%
percent control (mortality, anti-feedant effect or growth inhibition) at 200 ppm [8]: ≥ 80%
percent control (mortality, anti-feedant effect or growth inhibition) at 12.5 ppm [20]: ≥ 80%
percent control (mortality, anti-feedant effect or growth inhibition) at 200 ppm [9]: ≥ 80%
percent control (mortality or growth inhibition) at 50 ppm [12]: ≥ 80%
percent control (mortality or growth inhibition) at 50 ppm [13]: ≥ 80%
percent control (mortality or growth inhibition) at 200 ppm [14]: ≥ 80%
percent control (mortality or growth inhibition) at 12.5 ppm [15]: ≥ 80%
mortality at 200 ppm [16]: ≥ 80%
